Paper PMC11101253, “Pharmacokinetic Properties of Baitouweng Decoction in Bama Miniature Pigs: Implications for Clinical Application in Humans” (International Journal of Analytical Chemistry, 2024)
Read-outs that look alike come from different tables or passages of the source.

Tests used:
in vivo = test: in vivo
Protocol: The LC-MS analysis was conducted using a Waters Acquity UPLC I-Class system (Waters, USA) coupled with a Xevo TQ-XS mass spectrometer equipped with a heated electrospray ionization source. Chromatographic separation was carried out on an Acquity UPLC HSS T3 C18 column (2.1 mm × 50 mm, 1.8 μm) from Waters, USA, with a flow rate of 0.4 mL/min and a column oven temperature of 40°C. The mobile phase consisted of 0.1% aqueous formic acid (A) and acetonitrile (B). The gradient elution program was as follows: 0–2.0 min, 10%–60% B; 2.0–2.2 min, 60%–95% B; 2.2–3.2 min, 95% B; 3.2–3.5 min, 95%–10% B; and 3.5–5.5 min, 10% B. Mass spectrometric detection was conducted using both positive and negative ionization modes. The source parameters used were as follows: a spray voltage of 1.00 KV, capillary temperature set at 500°C, desolvation flow maintained at 1000 L/h, cone gas (nitrogen) flow at 150 L/h, and a cone voltage of 5 V. The collision energy and precursor to production transition m/z for each analyte are found in Table 1. The data acquisition was performed in multiple reaction monitoring (MRM) mode.
Subsequently, a volume of 400 μL of acetonitrile was added to a 100 μL plasma sample. The resulting mixture was subjected to vortexing for 1 minute and centrifuged at a force of 21367 g for 10 minutes at a temperature of 4°C. The resulting supernatant was subjected to evaporation, followed by reconstitution in a volume of 100 μL of 10% acetonitrile. This reconstituted solution was then centrifuged at a force of 21367 g, and subsequently, a volume of 4 μL of the resulting supernatant was used for UPLC-ESI-MS/MS analysis.
The study used six Bama miniature pigs (70 days old, weighing 20 ± 2 kg) obtained from the Experimental Animal Center, Shandong Lvdu Bio-Sciences and Technology Co., Ltd. (Binzhou, China). The pigs were housed under controlled conditions with a temperature of 25 ± 1°C, relative humidity of 65% ± 10%, and a 12/12 h light/dark cycle. The pigs were provided with standard pig feed and water ad libitum, in accordance with the guidelines outlined in the National Institutes of Health Guide for Care and Use of Laboratory Animals. […] Blood samples (0.5 mL each) were collected from the jugular vein of each pig into heparinized tubes at specific time intervals (0.5 h, 1.0 h, 4.0 h, 8.0 h, 12.0 h, 15.0 h, and 24.0 h) following intragastric administration. The blood sample was promptly subjected to centrifugation at a force of 3400 × g for 10 minutes. The resulting supernatant plasma was collected and preserved at a temperature of −80°C until subsequent preparation for LC-MS analysis. The concentration-time data of the analytes were evaluated using either noncompartmental or compartmental methods with the aid of the PKSolver 2.0 software package, and subsequently, pharmacokinetic parameters were computed. The outcomes are presented as the arithmetic mean accompanied by the standard deviation (SD).

[1] = design: method as in PMID 33217008; details: rats, oral 10 mg/kg obacunone; cited from earlier work
[2] = design: method as in PMID 34331552; details: rats, fruit of Tetradium ruticarpum and licorice extracts together; cited from earlier work
[3] = design: method as in PMID 28871816; details: rats, cited from earlier work
[4] = design: method as in PMID 10891884; details: beagle dogs, oral 300 mg of palmatine; cited from earlier work
[5] = Bama miniature, pig, in vivo, po
[6] = Bama miniature, pig, in vivo, po, C max
[7] = pig plasma, oral BTWD 1.0 mL/kg
[8] = pig plasma, single oral BTWD 1.0 mL/kg, n = 6, mean ± SD
[9] = Bama miniature, pig, plasma, po, 1 mL/kg
[10] = Bama miniature, pig, plasma, po, 1 mL/kg, C max, pig plasma, single oral BTWD 1.0 mL/kg, n = 6, mean ± SD
[11] = Bama miniature, pig, in vivo, po, 1 mL/kg

Compound: COc1ccc2cc3[n+](cc2c1OC)CCc1cc2c(cc1-3)OCO2 [Berberine, berberine]
- AUC(0-inf) (in vivo; [5]): 209 ± 13.6 ng·h/mL
- AUC(0-t) (in vivo; [5]): 202 ± 12.7 ng·h/mL
- MRT (in vivo; [5]): 11.07 ± 0.03 h
- Tmax (in vivo; [5]): 12 h
- half-life (in vivo; [5]): 3.14 ± 0.13 h
- Cmax (in vivo; [6]): 28.4 ± 0.83 ng/mL
- Cmax (in words) (in vivo; pig plasma, oral BTWD): low Cmax
- concentration-time profile (shape) (in vivo; [7]): biphasic patterns
- CL/F (in vivo; [8]): 14.82 ± 0.93 mL/h

Compound: COc1cc2c(cc1O)-c1cc3ccc(OC)c(OC)c3c[n+]1CC2 [Columbamine, columbamine]
- AUC(0-inf) (in vivo; [9]): 31 ± 1.36 ng·h/mL
- AUC(0-t) (in vivo; [9]): 28.4 ± 1.31 ng·h/mL
- MRT (in vivo; [9]): 12.5 ± 2.8 h
- Tmax (in vivo; [9]): 12 h
- half-life (in vivo; [9]): 6.74 ± 5.08 h
- Cmax (in vivo; [10]): 3.8 ± 0.08 ng/mL
- Cmax (in words) (in vivo; pig plasma, oral BTWD): low Cmax
- concentration-time profile (shape) (in vivo; [7]): biphasic patterns
- plasma concentrations (in vivo; pig plasma, oral BTWD 1.0 mL/kg, upper bound stated in text): below 10.0 ng/mL
- CL/F (in vivo; [8]): 17.54 ± 0.76 mL/h

Compound: c1c2c(cc3c1OCO3)-c1cc3ccc4c(c3c[n+]1CC2)OCO4 [Coptisine chloride, coptisine chloride]
- AUC(0-inf) (in vivo; [5]): 69.8 ± 1.42 ng·h/mL
- AUC(0-t) (in vivo; [5]): 59.88 ± 0.15 ng·h/mL
- MRT (in vivo; [5]): 14.3 ± 0.31 h
- Tmax (in vivo; [5]): 12 h
- half-life (in vivo; [5]): 5.7 ± 0.33 h
- plasma concentrations (in vivo; [5]): below 10.0 ng/mL
- Cmax (in vivo; [6]): 5.9 ± 0.15 ng/mL
- CL/F (in vivo; pig, in vivo, po): 6.56 ± 0.14 mL/h
- Cmax (in words) (in vivo; pig, in vivo, po): low Cmax
- concentration-time profile (shape) (in vivo; pig, in vivo, po): biphasic patterns

Compound: O=c1ccc2cc(O)c(O)cc2o1 [Esculetin, esculetin]
- AUC(0-inf) (in vivo; [9]): 994 ± 27.8 ng·h/mL
- AUC(0-t) (in vivo; [9]): 980 ± 26.4 ng·h/mL
- MRT (in vivo; [9]): 8.97 ± 0.08 h
- Tmax (in vivo; [9]): 4 h
- half-life (in vivo; [9]): 2.91 ± 0.08 h
- Cmax (in vivo; [10]): 78.1 ± 1.68 ng/mL
- concentration-time profile (shape) (in vivo; [7]): biphasic patterns
- C max (in vivo; [8]): 78.17 ± 1.68 ng/mL
- CL/F (in vivo; [8]): 0.76 ± 0.02 mL/h

Compound: O=c1ccc2cc(O[C@@H]3O[C@H](CO)[C@@H](O)[C@H](O)[C@H]3O)c(O)cc2o1 [Esculin, esculin]
- AUC(0-inf) (in vivo; [11]): 876 ± 124 ng·h/mL
- AUC(0-t) (in vivo; [11]): 531 ± 52.8 ng·h/mL
- Cmax (in vivo; [11]): 66.4 ± 1.91 ng/mL
- MRT (in vivo; [11]): 25.1 ± 1.91 h
- Tmax (in vivo; [11]): 1 h
- half-life (in vivo; [11]): 16.6 ± 1.48 h
- concentration-time profile (shape) (in vivo; [7]): biphasic patterns
- CL/F (in vivo; [8]): 3.25 ± 0.43 mL/h

Compound: COc1cc2ccc(=O)oc2c(O)c1O [Fraxetin, fraxetin]
- AUC(0-inf) (in vivo; [5]): 159 ± 9.33 ng·h/mL
- AUC(0-t) (in vivo; [5]): 159 ± 9.33 ng·h/mL
- MRT (in vivo; [5]): 0.98 ± 0.01 h
- Tmax (in vivo; [5]): 0.49 ± 0.01 h
- half-life (in vivo; [5]): 0.33 h
- Cmax (in vivo; [6]): 119 ± 6.14 ng/mL
- absorption and elimination (in words) (in vivo; pig plasma, oral BTWD): rapidly absorbed and eliminated from the plasma
- concentration-time profile (shape) (in vivo; [7]): biphasic patterns
- CL/F (in vivo; [8]): 9.72 ± 0.56 mL/h

Compound: COc1cc2ccc(=O)oc2c(O[C@@H]2O[C@H](CO)[C@@H](O)[C@H](O)[C@H]2O)c1O [Fraxin, fraxin]
- AUC(0-inf) (in vivo; [5]): 53.5 ± 2.78 ng·h/mL
- AUC(0-t) (in vivo; [5]): 53.2 ± 2.7 ng·h/mL
- MRT (in vivo; [5]): 1.07 ± 0.04 h
- Tmax (in vivo; [5]): 0.53 ± 0.02 h
- half-life (in vivo; [5]): 0.36 ± 0.01 h
- Cmax (in vivo; [6]): 36.8 ± 0.48 ng/mL
- absorption and elimination (in words) (in vivo; pig plasma, oral BTWD): rapidly absorbed and eliminated from the plasma
- CL/F (in vivo; [8]): 36.38 ± 1.84 mL/h

Compound: CC1(C)OC(=O)C=C[C@]2(C)[C@H]3CC[C@@]4(C)[C@H](c5ccoc5)OC(=O)[C@H]5O[C@]54[C@]3(C)C(=O)C[C@@H]12 [Obacunone, obacunone]
- MRT [1]: 4.30 ± 0.16 h
- Tmax [1]: 1 to 2 h
- AUC0− inf (in vivo; [5]): 1146.51 ± 7.38 ng·h/mL
- AUC(0-t) (in vivo; [5]): 111 ± 3.9 ng·h/mL
- MRT (in vivo; [5]): 17.4 ± 3 h
- Tmax (in vivo; [5]): 3.49 ± 0.07 h
- half-life (in vivo; [5]): 0.88 ± 0.15 h
- Cmax (in vivo; [6]): 7.39 ± 0.71 ng/mL
- CL/F (in vivo; pig, in vivo, po): 0.37 ± 0.02 mL/h
- Cmax (in words) (in vivo; pig, in vivo, po): low Cmax
- MRT [2]: 4.90 ± 2.60 h
- Tmax [2]: 1.67 ± 0.29 h

Compound: COc1cc2c(cc1O)C[C@H]1c3cc(O)c(OC)cc3CC[N@@+]1(C)C2 [Phellodendrine, phellodendrine]
- AUC0− inf (in vivo; pig, in vivo, po): 73.39 ± 2.80 ng·h/mL
- AUC0−t (in vivo; pig, in vivo, po): 69.72 ± 2.62 ng·h/mL
- C max (in vivo; pig, in vivo, po): 8.18 ± 0.21 ng/mL
- CL/F (in vivo; pig, in vivo, po): 12.41 ± 0.47 mL/h
- Cmax (in words) (in vivo; pig, in vivo, po): low Cmax
- MRT (in vivo; pig, in vivo, po): 11.39 ± 0.14 h
- T max (in vivo; pig, in vivo, po): 12.00 h
- concentration-time profile (shape) (in vivo; pig, in vivo, po): biphasic patterns
- plasma concentrations (in vivo; pig, in vivo, po): below 10.0 ng/mL
- t 1/2 (in vivo; pig, in vivo, po): 3.81 ± 0.10 h

Compound: C=C(C)[C@@H]1CC[C@]2(C(=O)O[C@@H]3O[C@H](CO[C@@H]4O[C@H](CO)[C@@H](O[C@@H]5O[C@@H](C)[C@H](O)[C@@H](O)[C@H]5O)[C@H](O)[C@H]4O)[C@@H](O)[C@H](O)[C@H]3O)CC[C@]3(C)[C@H](CC[C@@H]4[C@@]5(C)CC[C@H](O[C@@H]6OC[C@H](O)[C@H](O)[C@H]6O[C@@H]6O[C@@H](C)[C@H](O)[C@@H](O)[C@H]6O)[C@@](C)(CO)[C@@H]5CC[C@]43C)[C@@H]12 [Pulchinenoside B4, pulchinenoside B4]
- absorption and elimination (in words) (in vivo; pig plasma, oral BTWD): rapidly absorbed and eliminated from the plasma
- concentration-time profile (shape) (in vivo; [7]): biphasic patterns
- AUC0− inf (in vivo; [8]): 2580.65 ± 89.09 ng·h/mL
- AUC0−t (in vivo; [8]): 2525.63 ± 87.16 ng·h/mL
- C max (in vivo; [8]): 276.70 ± 10.54 ng/mL
- CL/F (in vivo; [8]): 1.36 ± 0.05 mL/h
- MRT (in vivo; [8]): 9.57 ± 0.14 h
- T max (in vivo; [8]): 1.00 h
- t 1/2 (in vivo; [8]): 3.27 ± 0.17 h

Compound: COc1cc2c(cc1OC)-c1cc3ccc(OC)c(OC)c3c[n+]1CC2 [palmatine]
- Cmax ([3]; oral Coptis root granules): 2.14 ± 0.68 ng/mL
- Tmax ([3]; oral Coptis root granules): 0.36 ± 0.074 h
- Cmax ([3]; oral Shuanghua Baihe tablets): 2.50 ± 0.43 ng/mL
- Tmax ([3]; oral Shuanghua Baihe tablets): 3.22 ± 0.81 h
- Cmax [4]: 8 ng/mL
- Tmax [4]: 5 h
- concentration at 12 h (in vivo; [5]): 5.79 ng/mL
- plasma concentration (in words) (in vivo; pig, in vivo, po): below the threshold required for the analysis of PK behavior
